Data reported in US12201626B2, “Bifunctional compositions for the treatment of cancer” (ARMACEUTICA, INC., priority 2018, dated 2025).
Read-outs that look alike come from different tables or passages of the source.

Columns and labels:
Calf Thymus DNA = experiment: Circular dichroism spectroscopy; format: binding; details: PND/DNA molar ratios 0.03-0.3; 30 min and 20 h
Method: Circular dichroism (CD) spectra measurements were taken in a JASCO-1100 spectropolarimeter equipped with a Xenon lamp (JASCO, Easton, MD). CT DNA and buffers were purchased from Sigma Aldrich. A CT DNA stock solution was prepared in Tris/HCl buffer (5 mM Tris/HCl, 50 mM NaCl, pH=7.39) and its concentration (4.325 mM) was spectrophotometrically determined using molar extinction coefficient 6600 M−1 cm−1 at 260 nm. A 150 μM dilution in Tris/HCl buffer was prepared and used for the experiments. A 2.0 mM stock solution of PND was freshly prepared in MQ water prior to use. The appropriate volume of this solution was added to 3 ml working solutions of 150 μM CT DNA to achieve molar ratios of 0.03, 0.06, 0.2 and 0.3 PND/DNA. Samples were prepared in triplicate and incubated for 30 minutes and 20 hours. All CD spectra of DNA and DNA/PND were recorded at 25° C. over the range 205-380 nm and finally corrected with a blank and noise reduction. The final data is the average of three experiments and it is expressed in millidegrees (mdegs).

[1] = tested on: MDA-MB-231 LM2-LUC4 metastatic breast cancer cells; experiment: Metastatic breast cancer tumours in mice, daily gavage; format: in vivo
Method: Treatment began when tumors reached 150-300 mm^3 in size (i.e. Day 1).
In the PND-treated group (n=6), all 6 mice were given 160 mg/kg from Day 1 to Day 9. PND-treated mice numbers 2, 4, and 5 received 160 mg/kg for the entire study, while PND-treated mice numbers 1, 3, and 6 had the largest tumors in the group on Day 9, and had their doses increased on Day 10 to 240 mg/kg, and again on Day 13 to 320 mg/kg. The control mice (n=6) were given placebo throughout the study. The size of each tumor was measured daily. The protocol's endpoint was when a tumor reached 1500 mm^3 in size, triggering the euthanization of the mouse. For the analysis, the level of significance was set at P<0.05.

[2] = Differential Nuclear Staining (DNS) cytotoxicity assay, panel; format: cell-based; details: human, read-out: selective cytotoxicity index (SCI)
Description: (§1) In this study, 19 human cell lines were utilized: seven breast human cancer; MDA-MB-468, MCF-7, T47D, HCC1419, HCC70, MDA-MB-231 (triple negative) and its lung metastatic (LM) derivative MDA-MB-231 LM2; four human leukemia/lymphoma cells, HL-60, Ramos, Jurkat and CEM, three human ovarian cancer, Ovcar 8, Ovcar 5 and Ovcar 3, one lung cancer, one melanoma and one pancreatic cell line, A549, A375, Panc-1 respectively. Furthermore, for selectivity/comparative purposes, the cell lines from the non-cancerous origin, MCF-10A, HS-27 were also included. The culture media used for MDA-MB-231, MDA-MB-231 LM2, MDA-MB-468, MCF-7, A549, A375, Panc-1, and HS-27 was DMEM (Hyclone, Logan UT), whereas for T47D, HCC-1419, HCC-70, HL-60, Ramos, Jurkat, CEM, Ovcar 8 and Ovcar 5 was RPMI-1640 (Hyclone, Logan UT). Consistently, both DMEM and RPMI culture media was supplemented with 10% heat-inactivated fetal bovine serum (FBS: Hyclone), 100 U/ml penicillin and 100 μg/ml streptomycin (Thermo Fisher Scientific Inc., Rockford, IL). […] The adherent cells, growing in the logarithmic growth phase at a 60-75% confluence, were detached by utilizing a HyQtase enzyme (Thermo Fisher Scientific Inc.), counted and seeded in 96-well plates at 10,000 cells density in 100 μL of culture medium per well. […]
(§2) To analyze the potential cytotoxic activity of PND, the Differential Nuclear Staining (DNS) assay, which was validated for high-throughput screening (HTS) using live-cell bio-imaging was utilized. […] Montages of 2 by 2 images were captured directly from each individual well of the culture plates by using a multi-well plate reader IN Cell 2000 analyzer, an HTS and high-content analysis (HCA) system (GE Healthcare Life Sciences, Pittsburgh, PA). […] Each experimental data point, as well as controls, were assessed in triplicates. […]
(§3) The selective cytotoxicity index (SCI) denotes the capability of a given experimental compound to kill cancer cells more efficiently while inflicting minimal toxicity to non-cancerous origin cells. Thus, the SCI for PND was calculated as follow: SCI=CC50 of non-cancerous cells/CC50 of cancer cells.

[3] = tested on: panel of human cancer cell lines; experiment: as above; format: cell-based; details: Homo sapiens; 72 h, DNS assay; read-out: CC50 over all cancer cell lines tested
Description: as §1, §2, §3

CEM cell line = experiment: Differential Nuclear Staining (DNS) cytotoxicity assay; format: cell-based, human
Description: In this study, 19 human cell lines were utilized: seven breast human cancer; MDA-MB-468, MCF-7, T47D, HCC1419, HCC70, MDA-MB-231 (triple negative) and its lung metastatic (LM) derivative MDA-MB-231 LM2; four human leukemia/lymphoma cells, HL-60, Ramos, Jurkat and CEM, three human ovarian cancer, Ovcar 8, Ovcar 5 and Ovcar 3, one lung cancer, one melanoma and one pancreatic cell line, A549, A375, Panc-1 respectively. Furthermore, for selectivity/comparative purposes, the cell lines from the non-cancerous origin, MCF-10A, HS-27 were also included. […] The adherent cells, growing in the logarithmic growth phase at a 60-75% confluence, were detached by utilizing a HyQtase enzyme (Thermo Fisher Scientific Inc.), counted and seeded in 96-well plates at 10,000 cells density in 100 μL of culture medium per well. […]
as §2

## COC1=CC=C2Nc3cc(Cl)ccc3C(N=C3C=C(CN4CCCC4)C(=O)C(CN4CCCC4)=C3)=C2N1 [PND, 4-[(7-chloro-2-methoxy-1,5-dihydrobenzo[b][1,5]naphthyridin-10-yl)imino]-2,6-bis(pyrrolidin-1-ylmethyl)cyclohexa-2,5-dien-1-one]
Calf Thymus DNA
  change of CD spectra of CT DNA: increase the intensity of both the negative and the positive bands
[1]; 160 mg/kg daily gavage, Day 1 to 9, control 750 mm^3, P 0.01
  average tumor size: 430 mm^3
[1]; 6 PND-treated mice dissected
  PND accumulation on dissection (stomach, intestines, liver): no sign of PND accumulation
[1]; 160-320 mg/kg daily gavage
  adverse events: no reports of negative adverse events except discomfort in walking after Day 15
  length of survival versus placebo: significant difference in lengths of survival favoring the PND-treated group
  weight, eating, grooming: no weight loss, no eating disorders, or grooming issues
[1]; Day 1 to 15, P 0.0001
  tumor size versus placebo: tumors had grown larger in the placebo group than in the PND-treated group
[1]; all 6 PND-treated mice
  pigmentation at about Day 20: yellowing in the eyes, skin, ears, and paws
[2]; leukemia/lymphoma cells
  selectivity ratio at 72 h: 1.43 to 3.47
[2]; several breast cancer cells vs non-cancerous cells
  selectivity ratio at 72 h: > 2.5
[3]
  CC50: 1.6 to 9.4 µM
CEM cell line
  selectivity (SCI): poor selectivity
